Experimental data from publication PMC3961306, “Comparison of the Cancer Gene Targeting and Biochemical Selectivities of All Targeted Kinase Inhibitors Approved for Clinical Use” (PLoS ONE, 2014).

Columns and labels:
Assay in all cases: Kinase profiling in a biochemical assay panel (mobility shift assays and ELISA), %-inhibition at 1 μM; selectivity entropy
[1] = molecular target: panel of more than 300 wild-type and mutant kinases (313 kinase panel) (Homo sapiens, UniProt Q14012); conditions: kinase CaMK1α; 1 μM compound
[2] = molecular target: panel of more than 300 wild-type and mutant kinases (313 kinase panel) (Homo sapiens, UniProt P57059); conditions: kinase SIK; 1 μM
[3] = molecular target: panel of more than 300 wild-type and mutant kinases (313 kinase panel) (Homo sapiens, UniProt O75116); conditions: kinase ROCK2; 1 μM
[4] = molecular target: panel of more than 300 wild-type and mutant kinases (313 kinase panel) (Homo sapiens, UniProt P36894); conditions: kinase BMPR1A; 1 μM compound
[5] = molecular target: panel of more than 300 wild-type and mutant kinases (313 kinase panel) (Homo sapiens, UniProt Q16654); conditions: kinase PDHK4; 1 μM
[6] = molecular target: panel of more than 300 wild-type and mutant kinases (313 kinase panel) (Homo sapiens, UniProt P80192); conditions: kinase MLK1; 1 μM
[7] = molecular target: T1, panel of more than 300 wild-type and mutant kinases (313 kinase panel) (Homo sapiens, UniProt Q8NE63); conditions: kinase HIPK4; compound at 1 μM
T1 sequence (Q8NE63 1-616): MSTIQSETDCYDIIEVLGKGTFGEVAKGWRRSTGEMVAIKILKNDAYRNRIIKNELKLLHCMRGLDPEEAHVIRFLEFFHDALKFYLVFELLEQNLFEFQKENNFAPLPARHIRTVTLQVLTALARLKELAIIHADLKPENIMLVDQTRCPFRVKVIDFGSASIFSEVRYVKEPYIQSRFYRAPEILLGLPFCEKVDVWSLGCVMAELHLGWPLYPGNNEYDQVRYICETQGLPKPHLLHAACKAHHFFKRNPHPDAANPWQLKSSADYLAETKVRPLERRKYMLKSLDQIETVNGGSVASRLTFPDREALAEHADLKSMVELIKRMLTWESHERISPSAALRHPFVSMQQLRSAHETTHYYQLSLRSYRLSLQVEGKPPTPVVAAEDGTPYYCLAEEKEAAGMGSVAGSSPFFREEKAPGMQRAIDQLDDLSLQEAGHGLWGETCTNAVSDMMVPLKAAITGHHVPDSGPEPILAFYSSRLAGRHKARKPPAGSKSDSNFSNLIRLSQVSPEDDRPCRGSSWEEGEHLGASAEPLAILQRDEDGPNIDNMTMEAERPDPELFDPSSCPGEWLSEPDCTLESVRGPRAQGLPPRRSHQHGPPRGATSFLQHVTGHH

[8] = molecular target: panel of more than 300 wild-type and mutant kinases (313 kinase panel) (Homo sapiens, UniProt P51451); conditions: kinase BLK; 1 μM compound
[9] = molecular target: T2, panel of more than 300 wild-type and mutant kinases (313 kinase panel) (Homo sapiens, UniProt Q96PY6); conditions: kinase NEK1; 1 μM
T2 sequence (Q96PY6 1-1258): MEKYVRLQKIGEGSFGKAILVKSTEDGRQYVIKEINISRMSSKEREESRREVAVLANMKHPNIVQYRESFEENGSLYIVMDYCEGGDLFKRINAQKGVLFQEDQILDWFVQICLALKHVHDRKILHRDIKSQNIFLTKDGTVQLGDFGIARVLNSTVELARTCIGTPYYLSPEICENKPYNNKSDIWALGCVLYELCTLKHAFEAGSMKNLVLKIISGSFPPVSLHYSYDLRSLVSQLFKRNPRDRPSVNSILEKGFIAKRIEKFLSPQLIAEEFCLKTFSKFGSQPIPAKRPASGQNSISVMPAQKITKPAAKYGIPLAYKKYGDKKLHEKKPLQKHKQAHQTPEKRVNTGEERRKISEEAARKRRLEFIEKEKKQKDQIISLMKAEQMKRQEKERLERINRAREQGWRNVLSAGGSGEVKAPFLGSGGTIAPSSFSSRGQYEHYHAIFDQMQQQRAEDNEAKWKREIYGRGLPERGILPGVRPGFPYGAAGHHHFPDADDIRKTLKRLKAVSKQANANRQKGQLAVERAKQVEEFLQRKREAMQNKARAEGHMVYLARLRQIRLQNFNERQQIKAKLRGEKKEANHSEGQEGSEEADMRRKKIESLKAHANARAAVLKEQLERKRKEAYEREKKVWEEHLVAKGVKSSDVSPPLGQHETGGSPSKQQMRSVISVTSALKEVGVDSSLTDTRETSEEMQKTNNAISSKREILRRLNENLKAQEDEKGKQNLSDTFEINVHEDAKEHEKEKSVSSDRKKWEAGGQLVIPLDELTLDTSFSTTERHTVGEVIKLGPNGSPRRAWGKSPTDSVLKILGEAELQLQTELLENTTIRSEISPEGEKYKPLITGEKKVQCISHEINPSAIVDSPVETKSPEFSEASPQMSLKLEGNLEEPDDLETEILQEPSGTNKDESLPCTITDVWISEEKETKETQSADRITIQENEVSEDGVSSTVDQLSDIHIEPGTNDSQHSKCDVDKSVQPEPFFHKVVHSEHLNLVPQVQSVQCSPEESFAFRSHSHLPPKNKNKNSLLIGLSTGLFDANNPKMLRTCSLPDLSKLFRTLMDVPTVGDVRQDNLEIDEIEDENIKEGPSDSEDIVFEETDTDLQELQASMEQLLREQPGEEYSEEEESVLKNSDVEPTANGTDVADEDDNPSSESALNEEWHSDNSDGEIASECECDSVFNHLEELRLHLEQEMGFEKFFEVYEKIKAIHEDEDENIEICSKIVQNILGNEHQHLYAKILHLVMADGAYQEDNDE

[10] = molecular target: panel of more than 300 wild-type and mutant kinases (313 kinase panel) (Homo sapiens, UniProt P06213); conditions: kinase INSR; compound at 1 μM
panel of more than 300 wild-type and mutant kinases (313 kinase panel) (Homo sapiens, UniProt P06213), sequence (P06213 28-1382, stated change not applied): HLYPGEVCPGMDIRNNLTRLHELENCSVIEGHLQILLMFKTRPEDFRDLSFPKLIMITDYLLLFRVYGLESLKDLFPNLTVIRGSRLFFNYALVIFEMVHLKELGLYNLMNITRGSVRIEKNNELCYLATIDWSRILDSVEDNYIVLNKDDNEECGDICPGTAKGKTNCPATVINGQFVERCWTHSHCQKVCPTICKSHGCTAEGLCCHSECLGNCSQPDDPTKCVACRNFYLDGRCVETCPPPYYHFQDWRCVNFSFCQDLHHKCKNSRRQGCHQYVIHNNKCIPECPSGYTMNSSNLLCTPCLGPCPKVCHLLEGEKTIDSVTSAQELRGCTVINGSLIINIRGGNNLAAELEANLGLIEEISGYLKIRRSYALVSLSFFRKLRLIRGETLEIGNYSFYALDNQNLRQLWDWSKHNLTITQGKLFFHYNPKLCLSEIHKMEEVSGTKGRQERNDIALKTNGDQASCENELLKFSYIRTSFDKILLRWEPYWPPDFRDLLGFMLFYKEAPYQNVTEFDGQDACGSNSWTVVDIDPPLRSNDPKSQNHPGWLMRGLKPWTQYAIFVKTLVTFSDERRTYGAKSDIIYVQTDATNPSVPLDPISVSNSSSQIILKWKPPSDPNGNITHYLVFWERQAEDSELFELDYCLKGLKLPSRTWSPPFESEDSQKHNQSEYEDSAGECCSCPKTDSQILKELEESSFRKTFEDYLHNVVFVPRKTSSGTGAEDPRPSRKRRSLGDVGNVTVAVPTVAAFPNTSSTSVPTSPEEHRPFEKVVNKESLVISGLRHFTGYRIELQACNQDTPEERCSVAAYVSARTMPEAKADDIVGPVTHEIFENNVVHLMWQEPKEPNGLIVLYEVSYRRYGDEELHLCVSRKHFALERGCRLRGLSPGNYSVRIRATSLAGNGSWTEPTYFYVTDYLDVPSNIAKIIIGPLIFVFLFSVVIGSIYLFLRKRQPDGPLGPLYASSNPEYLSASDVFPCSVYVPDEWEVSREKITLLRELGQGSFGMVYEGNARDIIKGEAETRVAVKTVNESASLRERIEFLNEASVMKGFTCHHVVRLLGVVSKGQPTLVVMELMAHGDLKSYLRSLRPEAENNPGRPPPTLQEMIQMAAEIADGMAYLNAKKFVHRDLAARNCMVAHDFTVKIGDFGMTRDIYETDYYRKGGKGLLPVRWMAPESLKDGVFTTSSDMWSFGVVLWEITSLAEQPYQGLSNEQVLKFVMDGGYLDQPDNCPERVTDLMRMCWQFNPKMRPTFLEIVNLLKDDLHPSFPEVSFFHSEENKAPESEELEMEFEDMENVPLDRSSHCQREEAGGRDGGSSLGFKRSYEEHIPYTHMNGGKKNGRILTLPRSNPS

panel of more than 300 wild-type and mutant kinases (313 kinase panel) (Homo sapiens, UniProt P80192), sequence (P80192 whole entry, change not shown): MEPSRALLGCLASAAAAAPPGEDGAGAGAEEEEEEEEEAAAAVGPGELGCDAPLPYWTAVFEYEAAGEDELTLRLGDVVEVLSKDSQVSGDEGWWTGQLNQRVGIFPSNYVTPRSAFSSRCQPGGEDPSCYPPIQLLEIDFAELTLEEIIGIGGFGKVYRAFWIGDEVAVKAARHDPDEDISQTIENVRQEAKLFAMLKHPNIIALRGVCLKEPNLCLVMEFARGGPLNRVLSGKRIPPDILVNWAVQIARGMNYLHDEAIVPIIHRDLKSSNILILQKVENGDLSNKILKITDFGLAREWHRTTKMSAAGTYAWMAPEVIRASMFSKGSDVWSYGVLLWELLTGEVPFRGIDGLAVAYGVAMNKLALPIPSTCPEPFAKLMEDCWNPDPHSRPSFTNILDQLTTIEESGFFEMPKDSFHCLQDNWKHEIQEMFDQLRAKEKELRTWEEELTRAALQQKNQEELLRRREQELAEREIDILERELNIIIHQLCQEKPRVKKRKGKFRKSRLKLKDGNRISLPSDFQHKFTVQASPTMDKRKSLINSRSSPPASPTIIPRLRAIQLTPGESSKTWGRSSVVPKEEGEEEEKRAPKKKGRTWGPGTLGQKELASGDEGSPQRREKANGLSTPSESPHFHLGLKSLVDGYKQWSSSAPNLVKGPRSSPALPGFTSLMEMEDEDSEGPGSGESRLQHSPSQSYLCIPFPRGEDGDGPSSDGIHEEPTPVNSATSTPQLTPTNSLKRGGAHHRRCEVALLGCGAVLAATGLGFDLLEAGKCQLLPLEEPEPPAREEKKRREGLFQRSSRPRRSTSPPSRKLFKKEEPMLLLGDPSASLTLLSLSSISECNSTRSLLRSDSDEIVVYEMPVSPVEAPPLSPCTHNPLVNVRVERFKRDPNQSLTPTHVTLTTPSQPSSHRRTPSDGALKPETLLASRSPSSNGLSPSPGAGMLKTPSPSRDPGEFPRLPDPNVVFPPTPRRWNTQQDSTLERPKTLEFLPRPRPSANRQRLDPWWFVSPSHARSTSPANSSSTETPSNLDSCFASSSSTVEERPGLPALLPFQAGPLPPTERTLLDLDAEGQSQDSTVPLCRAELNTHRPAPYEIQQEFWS
panel of more than 300 wild-type and mutant kinases (313 kinase panel) (Homo sapiens, UniProt P51451), sequence (P51451 whole entry, change not shown): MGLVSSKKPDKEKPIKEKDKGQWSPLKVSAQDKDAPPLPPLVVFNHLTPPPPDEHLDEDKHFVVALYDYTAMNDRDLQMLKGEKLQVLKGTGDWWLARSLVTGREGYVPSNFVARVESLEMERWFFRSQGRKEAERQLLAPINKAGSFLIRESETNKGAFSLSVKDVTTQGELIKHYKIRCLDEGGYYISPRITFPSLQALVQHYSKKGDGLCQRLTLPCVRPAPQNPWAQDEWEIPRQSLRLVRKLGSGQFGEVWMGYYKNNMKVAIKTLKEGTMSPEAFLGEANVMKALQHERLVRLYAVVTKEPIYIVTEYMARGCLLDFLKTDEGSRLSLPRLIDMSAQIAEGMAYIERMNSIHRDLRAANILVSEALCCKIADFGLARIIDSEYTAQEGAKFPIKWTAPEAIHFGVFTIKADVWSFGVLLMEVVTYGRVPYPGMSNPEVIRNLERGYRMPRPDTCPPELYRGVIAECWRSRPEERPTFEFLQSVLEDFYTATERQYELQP

## CNC(=O)c1cc(Oc2ccc(NC(=O)Nc3ccc(Cl)c(C(F)(F)F)c3)c(F)c2)ccn1 [regorafenib]
[1]
  %-inhibition, CaMK1α: -6%
[2]
  %-inhibition of SIK: 0.674%
[3]
  %-inhibition of ROCK2: 2.65%
[4]
  %-inhibition, BMPR1A: -4.65%
[5]
  %-inhibition of PDHK4: -1.61%
[6]
  %-inhibition of MLK1: -7%
[7]
  %-inhibition of HIPK4: 100%
[8]
  %-inhibition, BLK: 25%
[9]
  %-inhibition of NEK1: -7%
[10]
  %-inhibition of INSR: -2.79%

## Cc1ccc(Nc2nccc(N(C)c3ccc4c(C)n(C)nc4c3)n2)cc1S(N)(=O)=O [pazopanib]
[1]
  %-inhibition, CaMK1α: 5.59%
[2]
  %-inhibition of SIK: 19%
[3]
  %-inhibition of ROCK2: -0.78%
[4]
  %-inhibition, BMPR1A: -1.7%
[5]
  %-inhibition of PDHK4: -1%
[6]
  %-inhibition of MLK1: 90%
[7]
  %-inhibition of HIPK4: 22%
[8]
  %-inhibition, BLK: 62%
[9]
  %-inhibition of NEK1: 2.41%
[10]
  %-inhibition of INSR: 22%

## CO[C@H]1C[C@@H]2CC[C@@H](C)[C@@](O)(O2)C(=O)C(=O)N2CCCC[C@H]2C(=O)O[C@H]([C@H](C)C[C@@H]2CC[C@@H](OCCO)[C@H](OC)C2)CC(=O)[C@H](C)/C=C(\C)[C@@H](O)[C@@H](OC)C(=O)[C@H](C)C[C@H](C)/C=C/C=C/C=C/1C [everolimus]
[1]
  %-inhibition, CaMK1α: -8%
[2]
  %-inhibition of SIK: -5.51%
[3]
  %-inhibition of ROCK2: -5.49%
[4]
  %-inhibition, BMPR1A: -3.21%
[5]
  %-inhibition of PDHK4: 2%
[6]
  %-inhibition of MLK1: 5%
[7]
  %-inhibition of HIPK4: -6.34%
[8]
  %-inhibition, BLK: -7%
[9]
  %-inhibition of NEK1: -7%
[10]
  %-inhibition of INSR: -3.77%

## CC(=O)Nc1cccc(-n2c(=O)n(C3CC3)c(=O)c3c(Nc4ccc(I)cc4F)n(C)c(=O)c(C)c32)c1 [trametinib]
[1]
  %-inhibition, CaMK1α: -2%
[2]
  %-inhibition of SIK: -3%
[3]
  %-inhibition of ROCK2: 3%
[4]
  %-inhibition, BMPR1A: 2.14%
[5]
  %-inhibition of PDHK4: -1.65%
[6]
  %-inhibition of MLK1: 16%
[7]
  %-inhibition of HIPK4: 2.78%
[8]
  %-inhibition, BLK: -2.79%
[9]
  %-inhibition of NEK1: -5%
[10]
  %-inhibition of INSR: -30%

## CO[C@H]1C[C@@H]2CC[C@@H](C)[C@@](O)(O2)C(=O)C(=O)N2CCCC[C@H]2C(=O)O[C@H]([C@H](C)C[C@@H]2CC[C@@H](OC(=O)C(C)(CO)CO)[C@H](OC)C2)CC(=O)[C@H](C)/C=C(\C)[C@@H](O)[C@@H](OC)C(=O)[C@H](C)C[C@H](C)/C=C/C=C/C=C/1C [temsirolimus]
[1]
  %-inhibition, CaMK1α: -6.61%
[2]
  %-inhibition of SIK: -5.28%
[3]
  %-inhibition of ROCK2: -5.66%
[4]
  %-inhibition, BMPR1A: -9%
[5]
  %-inhibition of PDHK4: -1.83%
[6]
  %-inhibition of MLK1: 7.48%
[7]
  %-inhibition of HIPK4: 2.19%
[8]
  %-inhibition, BLK: -12%
[9]
  %-inhibition of NEK1: -8%
[10]
  %-inhibition of INSR: -4%
